Reference: US20250313553A1, “ANNULATED 2-AMINO-3-CYANO THIOPHENES AND DERIVATIVES FOR THE TREATMENT OF CANCER” (Boehringer Ingelheim Int'l GmbH Corp., priority 2021, published 2025)
pIC50: −log10 of the molar value.

Tests used:
KRAS (G13D) and SOS1 = molecular target: T1, KRAS (G13D) and SOS1 (Homo sapiens, UniProt P01116, C118S/G13D); assay: KRAS::SOS1 AlphaScreen binding assay, KRAS G13D
T1 construct: KRAS (G13D) 1-169, N-terminal 6His-tag for purification; 6His (N, cleaved yes); TEV cleavage site
T1 sequence (P01116 1-169 isoform P01116-2 G13D/C118S): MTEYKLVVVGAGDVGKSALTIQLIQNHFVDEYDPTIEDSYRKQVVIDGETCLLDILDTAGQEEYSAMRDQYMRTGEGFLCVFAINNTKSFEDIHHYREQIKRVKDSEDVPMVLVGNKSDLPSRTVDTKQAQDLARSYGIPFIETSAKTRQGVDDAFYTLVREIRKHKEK
Description: This assay can be used to examine the potency with which compounds according to the invention binding to (mutated) KRAS inhibit the protein-protein interaction between SOS1 and (mutated) KRAS e.g., KRAS WT, KRAS G12C, KRAS G12D, KRAS G12V or KRAS G13D. […] Low IC50 values in this assay setting are indicative of strong inhibition of protein-protein interaction between SOS1 and KRAS:
These assays measure the inhibitory effect of compounds on KRAS mutant protein-protein interactions using the Alpha Screen technology by Perkin Elmer. […]
Plates are kept at room temperature in a darkened incubator. After an additional 60 minutes incubation time the signal is measured in a PerkinElmer Envision HTS Multilabel Reader using the AlphaScreen specs from PerkinElmer. […]
As internal control known inhibitors of KRAS mutant::SOS1 interaction can be measured on each compound plate. […]

KRAS (WT) and SOS1 = molecular target: T2, KRAS (WT) and SOS1 (Homo sapiens, UniProt P01116, C118S); assay: KRAS::SOS1 AlphaScreen binding assay, KRAS WT
T2 construct: KRAS (WT) 1-169, N-terminal 6His-tag for purification; 6His (N, cleaved yes); TEV cleavage site
T2 sequence (P01116 1-169 isoform P01116-2 C118S): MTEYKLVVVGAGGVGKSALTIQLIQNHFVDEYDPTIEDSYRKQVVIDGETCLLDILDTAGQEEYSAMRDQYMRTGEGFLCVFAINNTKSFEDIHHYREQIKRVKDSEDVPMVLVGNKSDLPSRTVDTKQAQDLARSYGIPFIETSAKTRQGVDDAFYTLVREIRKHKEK
Protocol: Low IC50 values in this assay setting are indicative of strong inhibition of protein-protein interaction between SOS1 and KRAS:
These assays measure the inhibitory effect of compounds on KRAS mutant protein-protein interactions using the Alpha Screen technology by Perkin Elmer.
For the chosen highest assay concentration of 100 μM, 150 nL of compound solution are transferred from a 10 mM DMSO compound stock solution. A series of eleven fivefold dilutions per compound are transferred to the assay plate, compound dilutions are tested in duplicates. DMSO are added as backfill to a total volume of 150 nL.
The assays run on a fully automated robotic system in a darkened room below 100 Lux. To 150 nl of compound dilution 10 μl of a mix including KRAS mutant protein, SOS1 (final assay concentrations see above) and GDP nucleotide (Sigma G7127; final assay concentration 10 μM) in assay buffer (1×PBS, 0.1% BSA, 0.05% Tween 20) are added into columns 1-24. […]
Plates are kept at room temperature in a darkened incubator. After an additional 60 minutes incubation time the signal is measured in a PerkinElmer Envision HTS Multilabel Reader using the AlphaScreen specs from PerkinElmer.
IC50 values are calculated and analyzed with Boehringer Ingelheim's MEGALAB IC50 application using a 4 parametric logistic model.

GP2D cells = assay: GP2D proliferation assay (120 h); type: cell-based; details: colorectal cancer, G12D
Protocol: GP2D cells (ATCC No. CRL-5807) are dispensed into white 384-well plates, flat and white bottom(Perkin Elmer, 6007680) at a density of 500 cells per well in 40 μl DMEM (Sigma, D6429)+1×GlutaMAX (Gibco, 35050038)+10% FCS (fetal calf serum). […] Compounds (10 mM stock in DMSO) are added at logarithmic dose series using the HP Digital Dispenser D300 (Tecan), including DMSO controls and normalizing for added DMSO. For the T0 time point measurement, untreated cells are analyzed at the time of compound addition. Plates are incubated for 120 h, and cell viability is measured using CellTiter-Glo luminescent cell viability reagent (Promega product code G7570). Viability (stated as percent of control) is defined as relative luminescence units RLU of each well divided by the RLU of cells in DMSO controls. IC50 values are determined from viability measurements by non-linear regression using a four-parameter model.

pIC50 (KRAS (G13D) and SOS1) | pIC50 (KRAS (WT) and SOS1) | Structure (SMILES) | pIC50 (GP2D cells)
6.03 | 6.90 | C[C@H]1CN(C)CCN1c1cccc(-c2noc([C@@]3(C)CCCc4sc(N)c(C#N)c43)n2)n1 [Example V-1] | –
6.75 | 7.55 | C[C@H](Oc1cccc(-c2noc([C@@]3(C)CCCc4sc(N)c(C#N)c43)n2)n1)[C@@H]1CCCN1C [Example V-8] | –
– | – | C[C@H](Oc1ccnc(-c2noc([C@@]3(C)CCCc4sc(N)c(C#N)c43)n2)n1)[C@@H]1CCCN1C [Example V-11] | 6.82
